Laboratory results taken from ChEMBL document CHEMBL4184232, “Novel (S)-1,3,4,12a-tetrahydropyrazino[2,1-c][1,4]benzodiazepine-6,12(2H,11H)-dione derivatives: Selective inhibition of MV-4-11 biphenotypic B myelomonocytic leukemia cells' growth is accompanied by reactive oxygen species overproduction and apoptosis” (Bioorg Med Chem Lett, 2018).
The source made the active and inactive calls. The rule behind the calls is not given here.

How the values were obtained:
[1] = tested on: MV4-11; assay: Antiproliferative activity against human MV4-11 cells incubated for 72 hrs by SRB assay; format: functional, cell-based; settings: MV4-11, 72 h
[2] = tested on: UMUC3; assay: Antiproliferative activity against human UM-UC-3 cells incubated for 72 hrs by SRB assay; format: functional, cell-based; settings: UMUC3, 72 h
[3] = tested on: MDA-MB-231; assay: Antiproliferative activity against human MDA-MB-231 cells incubated for 72 hrs by SRB assay; format: functional, cell-based; settings: MDA-MB-231, 72 h
[4] = tested on: MCF7; assay: Antiproliferative activity against human MCF7 cells incubated for 72 hrs by SRB assay; format: functional, cell-based; settings: MCF7, 72 h
[5] = tested on: LoVo; assay: Antiproliferative activity against human LoVo cells incubated for 72 hrs by SRB assay; format: functional, cell-based
[6] = tested on: HT-29; assay: Antiproliferative activity against human HT-29 cells incubated for 72 hrs by SRB assay; format: functional, cell-based; settings: HT-29, 72 h
[7] = tested on: A549; assay: Antiproliferative activity against human A549 cells incubated for 72 hrs by SRB assay; format: functional, cell-based; settings: A549, 72 h
[8] = tested on: A2780; assay: Antiproliferative activity against human A2780 cells incubated for 72 hrs by SRB assay; format: functional, cell-based; settings: A2780, 72 h
[9] = tested on: BALB/3T3; assay: Antiproliferative activity against mouse BALB/3T3 cells incubated for 72 hrs by SRB assay; format: cell-based; settings: BALB/3T3, 72 h
[10] = tested on: Calf thymus DNA; assay: Binding affinity to calf thymus DNA assessed as increase in melting temperature incubated for 18 hrs by thermal denaturation study; format: nucleic-acid assay; settings: Bos taurus
[11] = tested on: MV4-11; assay: Induction of apoptosis in human MV4-11 cells assessed as increase in caspase-3/7 activity using Ac-DEVD-ACC substrate incubated for 24 hrs by fluorescence based assay; format: functional, cell-based
[12] = tested on: UMUC3; assay: Induction of apoptosis in human UM-UC-3 cells assessed as increase in caspase-3/7 activity at 100 uM using Ac-DEVD-ACC substrate incubated for 24 hrs by fluorescence based assay; format: functional, cell-based
[13] = Ratio of induction of apoptosis in human UM-UC-3 cells assessed as increase in caspase-3/7 activity at 100 uM to induction of apoptosis in human MV4-11 cells assessed as increase in caspase-3/7 activity at 100 uM; format: functional
[14] = tested on: MV4-11; assay: Induction of cell cycle arrest in human MV4-11 cells assessed as reduction in accumulation at G2/M phase at 100 uM incubated for 24 hrs by propidium iodide staining based flow cytometry; format: functional
[15] = tested on: MV4-11; assay: Induction of cell cycle arrest in human MV4-11 cells assessed as reduction in accumulation at S phase at 100 uM incubated for 24 hrs by propidium iodide staining based flow cytometry; format: functional
[16] = tested on: MV4-11; assay: Induction of cell cycle arrest in human MV4-11 cells assessed as increase in accumulation at G0/G1 phase at 100 uM incubated for 24 hrs by propidium iodide staining based flow cytometry; format: functional
[17] = tested on: MV4-11; assay: Induction of cell cycle arrest in human MV4-11 cells assessed as increase in accumulation at subG1 phase at 100 uM incubated for 24 hrs by propidium iodide staining based flow cytometry; format: functional
[18] = tested on: UMUC3; assay: Induction of cell cycle arrest in human UM-UC-3 cells assessed as accumulation at G2/M phase at 5 to 100 uM incubated for 24 hrs by propidium iodide staining based flow cytometry; format: functional
[19] = tested on: UMUC3; assay: Induction of cell cycle arrest in human UM-UC-3 cells assessed as accumulation at S phase at 5 to 100 uM incubated for 24 hrs by propidium iodide staining based flow cytometry; format: functional
[20] = tested on: UMUC3; assay: Induction of cell cycle arrest in human UM-UC-3 cells assessed as accumulation at G0/G1 phase at 5 to 100 uM incubated for 24 hrs by propidium iodide staining based flow cytometry; format: functional
[21] = tested on: MV4-11; assay: Induction of oxidative stress in human MV4-11 cells assessed as increase in ROS production at 5 to 100 uM incubated for 6 hrs by DCF-DA and propidium iodide dye based flow cytometry; format: functional, cell-based
[22] = tested on: UMUC3; assay: Induction of oxidative stress in human UM-UC-3 cells assessed as increase in ROS production at 5 to 100 uM incubated for 6 hrs by DCF-DA and propidium iodide dye based flow cytometry; format: functional, cell-based
[23] = tested on: P388; assay: Cytotoxicity against mouse P388 cells; format: functional
[24] = tested on: UMUC3; assay: Induction of apoptosis in human UM-UC-3 cells assessed as increase in caspase-3/7 activity at 5 to 100 uM using Ac-DEVD-ACC substrate incubated for 24 hrs by fluorescence based assay; format: functional, cell-based
[25] = tested on: UMUC3; assay: Induction of apoptosis in human UM-UC-3 cells at 5 to 100 uM incubated for 24 hrs by FITC-Annexin V staining based flow cytometry; format: functional, cell-based
[26] = tested on: MV4-11; assay: Induction of apoptosis in human MV4-11 cells at 5 to 100 uM incubated for 24 hrs by FITC-Annexin V staining based flow cytometry; format: functional, cell-based

| SMILES | IC50 [1] | IC50 [3] | IC50 [4] | IC50 [5] | IC50 [6] | IC50 [7] | IC50 [8] | IC50 [2] | IC50 [9] | further results |
| --- | --- | --- | --- | --- | --- | --- | --- | --- | --- | --- |
| COc1cc2c(cc1O)NC(=O)[C@@H]1C[C@@H](O)CN1C2=O |  |  |  |  |  |  |  |  |  | deltaTm [10]: 3.3 K |
| O=C(O)CN1C(=O)[C@@H]2CN(C(=O)c3ccc(-c4ccccc4)cc3)CCN2C(=O)c2ccccc21 | 7.6 µM | 7.8 µM | 7.6 µM | 27.6 µM | 17.8 µM | 3.2 µM | 19.6 µM | 3 µM | 15 µM |  |
| O=C1Nc2ccccc2C(=O)N2CCN(C(=O)c3ccc(-c4ccccc4)cc3)C[C@H]12 | 39.6 µM |  |  |  |  |  |  | 19.6 µM |  |  |
| O=C1Nc2ccccc2C(=O)N2C=C(c3ccc(Br)cc3)C[C@@H]12 |  |  |  |  |  |  |  |  |  | GI50 [23]: 510 nM |
| O=C1Nc2ccccc2C(=O)N2CCN(C(=O)c3ccc(Cl)cc3)C[C@@H]12 | 32.3 µM |  |  |  |  |  |  | 18.2 µM |  |  |
| O=C1Nc2ccccc2C(=O)N2CCN(C(=O)c3ccccc3I)C[C@@H]12 | 44 µM |  |  |  |  |  |  | 31.1 µM |  |  |
| O=C1Nc2ccccc2C(=O)N2CCN(C(=O)c3ccccc3I)C[C@H]12 | 39.8 µM |  |  |  |  |  |  | 13.3 µM |  |  |
| O=C1Nc2ccccc2C(=O)N2CCN(C(=O)c3ccccc3)C[C@H]12 | 28.8 µM |  |  |  |  |  |  | 24.6 µM |  |  |
| O=C1Nc2ccc(Cl)cc2C(=O)N2CCN(C(=O)c3ccc(-c4ccccc4)cc3)C[C@@H]12 | 40.7 µM | 85.8 µM | 50.9 µM | 28.9 µM | 46.4 µM | 51 µM | 29.7 µM | 94.4 µM | 105 µM |  |
| CN1C(=O)[C@@H]2CN(C(=O)c3ccc(-c4ccccc4)cc3)CCN2C(=O)c2ccccc21 | 63.1 µM | 134 µM | 77.5 µM | 58.3 µM | 94.2 µM | 92 µM | 64.5 µM | 103 µM | 37 µM |  |
| O=C(c1ccc(-c2ccccc2)cc1)N1CCN2C(=O)c3ccccc3N(Cc3ccccc3)C(=O)[C@@H]2C1 | 10.8 µM | 41 µM | 35.8 µM | 11 µM | 144 µM | 106 µM | 62.8 µM | 136 µM | 136 µM | Activity [11]: Dose-dependent effect; Activity [24]: inactive; Activity [25]: inactive; Activity [26]: Active; Activity [14]: Active; Activity [15]: Active; Activity [16]: Active; Activity [17]: Active; Activity [18]: inactive; Activity [19]: inactive; Activity [20]: inactive; Activity [21]: Dose-dependent effect; Activity [22]: Dose-dependent effect |
| O=C1Nc2ccc(Br)cc2C(=O)N2CCN(C(=O)c3ccc(-c4ccccc4)cc3)C[C@@H]12 | 8.7 µM | 113 µM | 57 µM | 22.1 µM | 17.9 µM | 48.1 µM | 28.2 µM | 119 µM | 121 µM |  |

Second part, led by results:

| IC50 [1] | IC50 [3] | IC50 [4] | IC50 [5] | IC50 [6] | IC50 [7] | IC50 [8] | SMILES | IC50 [2] | IC50 [9] | further results |
| --- | --- | --- | --- | --- | --- | --- | --- | --- | --- | --- |
| 44.2 µM | 30.3 µM | 147 µM | 23.1 µM | 40.1 µM | 34.1 µM | 28 µM | O=C(CN1C(=O)[C@@H]2CN(C(=O)c3ccc(-c4ccccc4)cc3)CCN2C(=O)c2ccccc21)OCc1ccccc1 | 96.8 µM | 31 µM |  |
| 17.5 µM | 141 µM | 47.3 µM | 55 µM | 154 µM | 96.1 µM | 35.8 µM | O=C1Nc2ccccc2C(=O)N2CCN(C(=O)c3ccc(-c4ccccc4)cc3)C[C@@H]12 | 61.5 µM | 79.6 µM | Activity [11]: Dose-dependent effect; Activity [12]: Active; Ratio [13]: >2; Activity [14]: Active; Activity [15]: Active; Activity [16]: Active; Activity [17]: Active; Activity [18]: inactive; Activity [19]: inactive; Activity [20]: inactive; Activity [21]: Active; Activity [22]: Active |
| 36.7 µM |  |  |  |  |  |  | O=C1Nc2ccccc2C(=O)N2CCN(C(=O)c3ccc(Cl)cc3)C[C@H]12 | 22.3 µM |  |  |
| 27.1 µM |  |  |  |  |  |  | O=C1Nc2ccccc2C(=O)N2CCN(C(=O)c3ccccc3)C[C@@H]12 | 10.5 µM |  |  |
